Source: ChEMBL document CHEMBL4507310, “Data for DCP probe A-1211212” (2021)

Key:
[1] = target: Prostaglandin G/H synthase 1 (Homo sapiens) (UniProt P23219); test: COX1(h) Eurofins-Cerep enzyme and uptake assay; conditions: Compound concentration 10.0 uM
[2] = test system: Phosphatidylinositol 4,5-bisphosphate 3-kinase catalytic subunit alpha isoform (Homo sapiens), P42336 [E542K]; conditions: Compound concentration 1000.0 nM
[3] = target: Activin receptor type-1B (Homo sapiens) (UniProt P36896); conditions: Compound concentration 1000.0 nM
Chain of Activin receptor type-1B (Homo sapiens) (P36896 whole entry): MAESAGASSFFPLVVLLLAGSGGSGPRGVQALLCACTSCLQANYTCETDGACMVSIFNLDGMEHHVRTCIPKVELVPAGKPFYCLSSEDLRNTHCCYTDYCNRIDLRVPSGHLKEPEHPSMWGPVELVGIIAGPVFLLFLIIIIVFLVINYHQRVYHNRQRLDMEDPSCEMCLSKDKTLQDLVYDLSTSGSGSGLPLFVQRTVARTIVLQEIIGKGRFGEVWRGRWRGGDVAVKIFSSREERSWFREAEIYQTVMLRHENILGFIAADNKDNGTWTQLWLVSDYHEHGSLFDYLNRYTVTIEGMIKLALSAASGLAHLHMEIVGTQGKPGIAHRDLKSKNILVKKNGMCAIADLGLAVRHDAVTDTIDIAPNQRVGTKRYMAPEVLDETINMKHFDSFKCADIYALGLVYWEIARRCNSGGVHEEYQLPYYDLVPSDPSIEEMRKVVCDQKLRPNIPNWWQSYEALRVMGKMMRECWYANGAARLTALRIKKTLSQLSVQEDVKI

[4] = target: Prostaglandin E2 receptor EP2 subtype (Homo sapiens) (UniProt P43116); test: EP2 (h) Eurofins-Cerep binding assay; design: ligand concentration 3 nM; conditions: filed as agonist, Compound concentration 10.0 uM
Chain of Prostaglandin E2 receptor EP2 subtype (Homo sapiens) (P43116 whole entry): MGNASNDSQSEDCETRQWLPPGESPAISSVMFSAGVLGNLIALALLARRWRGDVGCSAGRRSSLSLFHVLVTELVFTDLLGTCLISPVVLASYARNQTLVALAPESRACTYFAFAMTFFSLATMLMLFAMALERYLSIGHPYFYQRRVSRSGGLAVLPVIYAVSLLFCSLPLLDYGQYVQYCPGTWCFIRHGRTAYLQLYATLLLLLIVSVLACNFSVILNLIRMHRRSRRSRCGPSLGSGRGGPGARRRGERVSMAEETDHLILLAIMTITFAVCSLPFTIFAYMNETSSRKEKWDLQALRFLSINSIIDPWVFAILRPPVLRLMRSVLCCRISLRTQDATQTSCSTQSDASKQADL

[5] = target: Cyclin-dependent kinase 11A (Homo sapiens) (UniProt Q9UQ88); conditions: Compound concentration 1000.0 nM
[6] = target: STE20/SPS1-related proline-alanine-rich protein kinase (Homo sapiens) (UniProt Q9UEW8); conditions: Compound concentration 1000.0 nM
[7] = target: Ribosomal protein S6 kinase alpha-5 (Homo sapiens) (UniProt O75582); conditions: Compound concentration 1000.0 nM
[8] = target: Activin receptor type-2A (Homo sapiens) (UniProt P27037); conditions: Compound concentration 1000.0 nM
[9] = target: 5-hydroxytryptamine receptor 2A (Homo sapiens) (UniProt P28223); test: 5-HT2A (h) Eurofins-Cerep binding assay; design: ligand concentration 0.5 nM; conditions: filed as antagonist, Compound concentration 10.0 uM
Chain of 5-hydroxytryptamine receptor 2A (Homo sapiens) (P28223 whole entry): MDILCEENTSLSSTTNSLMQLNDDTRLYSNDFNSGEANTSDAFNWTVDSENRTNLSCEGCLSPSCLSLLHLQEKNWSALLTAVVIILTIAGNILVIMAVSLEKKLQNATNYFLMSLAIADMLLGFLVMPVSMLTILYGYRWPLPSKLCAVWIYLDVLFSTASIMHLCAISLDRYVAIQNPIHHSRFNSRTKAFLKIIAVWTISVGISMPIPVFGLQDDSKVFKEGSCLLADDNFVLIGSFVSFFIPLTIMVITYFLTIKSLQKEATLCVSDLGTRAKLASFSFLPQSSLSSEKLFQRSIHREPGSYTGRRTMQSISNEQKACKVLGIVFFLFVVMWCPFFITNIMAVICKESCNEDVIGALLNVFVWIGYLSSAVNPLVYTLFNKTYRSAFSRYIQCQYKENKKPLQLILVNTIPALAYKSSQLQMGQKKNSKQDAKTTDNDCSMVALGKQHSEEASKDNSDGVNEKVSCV

[10] = target: Mu-type opioid receptor (Homo sapiens) (UniProt P35372); test: mu (MOP) (h) Eurofins-Cerep binding assay; design: ligand concentration 0.5 nM; conditions: filed as agonist, Compound concentration 10.0 uM
[11] = target: Calcium/calmodulin-dependent protein kinase type II subunit delta (Homo sapiens) (UniProt Q13557); conditions: Compound concentration 1000.0 nM
[12] = test system: Tyrosine-protein kinase ABL1 (Homo sapiens), P00519 [Y253F]; conditions: Compound concentration 1000.0 nM
[13] = target: Serine/threonine-protein kinase BRSK1 (Homo sapiens) (UniProt Q8TDC3); conditions: Compound concentration 1000.0 nM
[14] = target: Cyclin-dependent kinase 15 (Homo sapiens) (UniProt Q96Q40); conditions: Compound concentration 1000.0 nM
[15] = target: Fibroblast growth factor receptor 3 (Homo sapiens) (UniProt P22607); conditions: Compound concentration 1000.0 nM
[16] = target: Angiotensin-converting enzyme (Homo sapiens) (UniProt P12821); test: ACE (h) Eurofins-Cerep enzyme and uptake assay; conditions: Compound concentration 10.0 uM
Chain of Angiotensin-converting enzyme (Homo sapiens) (P12821 whole entry): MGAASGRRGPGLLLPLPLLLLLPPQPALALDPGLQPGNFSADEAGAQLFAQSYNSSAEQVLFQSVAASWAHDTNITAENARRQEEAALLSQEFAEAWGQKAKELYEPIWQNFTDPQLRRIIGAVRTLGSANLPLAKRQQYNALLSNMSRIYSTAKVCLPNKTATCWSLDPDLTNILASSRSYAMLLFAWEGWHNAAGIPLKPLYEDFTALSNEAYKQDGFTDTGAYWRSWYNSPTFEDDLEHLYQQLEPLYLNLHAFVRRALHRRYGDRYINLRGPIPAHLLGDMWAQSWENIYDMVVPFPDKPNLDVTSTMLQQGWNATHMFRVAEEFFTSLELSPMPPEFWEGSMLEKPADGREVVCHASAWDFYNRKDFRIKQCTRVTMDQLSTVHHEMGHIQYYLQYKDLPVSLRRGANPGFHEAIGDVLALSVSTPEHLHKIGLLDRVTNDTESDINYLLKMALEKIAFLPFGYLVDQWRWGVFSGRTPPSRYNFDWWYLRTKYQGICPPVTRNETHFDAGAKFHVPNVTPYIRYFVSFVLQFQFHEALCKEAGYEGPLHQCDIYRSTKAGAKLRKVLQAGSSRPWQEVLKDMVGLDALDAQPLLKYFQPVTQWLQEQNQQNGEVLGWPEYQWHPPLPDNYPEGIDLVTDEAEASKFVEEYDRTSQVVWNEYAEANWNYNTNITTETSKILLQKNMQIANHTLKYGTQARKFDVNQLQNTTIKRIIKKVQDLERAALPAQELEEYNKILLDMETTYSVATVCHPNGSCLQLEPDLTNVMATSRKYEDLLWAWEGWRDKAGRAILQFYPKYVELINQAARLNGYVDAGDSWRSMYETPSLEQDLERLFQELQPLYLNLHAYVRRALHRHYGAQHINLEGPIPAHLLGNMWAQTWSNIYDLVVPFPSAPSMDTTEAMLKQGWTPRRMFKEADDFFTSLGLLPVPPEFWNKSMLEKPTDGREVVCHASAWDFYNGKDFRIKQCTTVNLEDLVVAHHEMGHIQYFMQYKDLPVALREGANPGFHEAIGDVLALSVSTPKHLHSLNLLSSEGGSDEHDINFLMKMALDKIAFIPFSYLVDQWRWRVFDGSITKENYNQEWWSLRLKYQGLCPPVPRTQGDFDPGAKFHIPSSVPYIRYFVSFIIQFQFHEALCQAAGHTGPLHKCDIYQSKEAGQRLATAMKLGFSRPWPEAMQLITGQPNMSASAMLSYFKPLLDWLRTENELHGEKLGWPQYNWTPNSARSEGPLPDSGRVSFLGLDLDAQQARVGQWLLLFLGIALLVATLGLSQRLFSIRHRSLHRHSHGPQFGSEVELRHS

[17] = target: Serine/threonine-protein kinase MAK (Homo sapiens) (UniProt P20794); conditions: Compound concentration 1000.0 nM
[18] = target: Mitogen-activated protein kinase kinase kinase 1 (Homo sapiens) (UniProt Q13233); conditions: Compound concentration 1000.0 nM
Chain of Mitogen-activated protein kinase kinase kinase 1 (Homo sapiens) (Q13233 whole entry): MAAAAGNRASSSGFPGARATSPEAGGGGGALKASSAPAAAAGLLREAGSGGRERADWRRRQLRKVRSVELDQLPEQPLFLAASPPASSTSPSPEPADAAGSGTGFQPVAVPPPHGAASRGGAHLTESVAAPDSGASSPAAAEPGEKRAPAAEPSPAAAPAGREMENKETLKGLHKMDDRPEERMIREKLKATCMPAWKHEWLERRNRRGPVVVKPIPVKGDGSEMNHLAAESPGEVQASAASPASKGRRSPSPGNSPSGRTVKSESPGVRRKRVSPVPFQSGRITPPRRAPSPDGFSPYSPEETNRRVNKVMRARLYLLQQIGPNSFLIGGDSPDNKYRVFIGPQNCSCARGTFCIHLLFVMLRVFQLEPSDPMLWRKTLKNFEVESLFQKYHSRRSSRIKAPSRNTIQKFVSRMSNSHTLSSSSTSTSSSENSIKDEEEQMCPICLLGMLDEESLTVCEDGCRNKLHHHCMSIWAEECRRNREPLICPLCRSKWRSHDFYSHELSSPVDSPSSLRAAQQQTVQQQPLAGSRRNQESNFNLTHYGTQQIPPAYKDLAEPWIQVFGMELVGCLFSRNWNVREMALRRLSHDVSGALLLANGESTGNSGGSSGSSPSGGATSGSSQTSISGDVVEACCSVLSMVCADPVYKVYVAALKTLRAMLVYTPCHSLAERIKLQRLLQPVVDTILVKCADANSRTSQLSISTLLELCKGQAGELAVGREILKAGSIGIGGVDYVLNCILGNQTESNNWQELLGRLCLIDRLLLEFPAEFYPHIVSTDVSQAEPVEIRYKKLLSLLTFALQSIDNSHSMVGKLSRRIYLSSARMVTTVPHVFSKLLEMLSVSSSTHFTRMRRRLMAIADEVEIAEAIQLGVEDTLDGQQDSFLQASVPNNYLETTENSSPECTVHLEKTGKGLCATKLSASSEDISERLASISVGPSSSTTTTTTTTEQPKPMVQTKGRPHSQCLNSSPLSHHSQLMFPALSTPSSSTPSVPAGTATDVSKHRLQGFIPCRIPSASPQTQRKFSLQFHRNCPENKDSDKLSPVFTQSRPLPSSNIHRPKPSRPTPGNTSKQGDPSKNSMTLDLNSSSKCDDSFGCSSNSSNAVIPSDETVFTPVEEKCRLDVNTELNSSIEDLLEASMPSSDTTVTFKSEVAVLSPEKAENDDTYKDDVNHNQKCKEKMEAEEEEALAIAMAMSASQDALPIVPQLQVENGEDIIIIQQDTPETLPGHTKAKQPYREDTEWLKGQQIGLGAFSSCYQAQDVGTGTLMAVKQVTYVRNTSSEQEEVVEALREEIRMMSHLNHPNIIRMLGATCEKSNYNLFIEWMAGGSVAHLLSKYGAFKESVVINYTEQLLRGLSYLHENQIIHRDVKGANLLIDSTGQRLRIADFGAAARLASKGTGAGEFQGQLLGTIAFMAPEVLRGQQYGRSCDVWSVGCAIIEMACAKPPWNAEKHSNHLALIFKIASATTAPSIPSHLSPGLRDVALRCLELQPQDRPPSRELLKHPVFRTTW

[19] = target: Serine/threonine-protein kinase PAK 5 (Homo sapiens) (UniProt Q9P286); conditions: Compound concentration 1000.0 nM
[20] = target: Maternal embryonic leucine zipper kinase (Homo sapiens) (UniProt Q14680); conditions: Compound concentration 1000.0 nM
[21] = target: T1, Alpha-1B adrenergic receptor (Homo sapiens) (UniProt P35368); conditions: Compound concentration 10.0 uM
T1 sequence (whole entry): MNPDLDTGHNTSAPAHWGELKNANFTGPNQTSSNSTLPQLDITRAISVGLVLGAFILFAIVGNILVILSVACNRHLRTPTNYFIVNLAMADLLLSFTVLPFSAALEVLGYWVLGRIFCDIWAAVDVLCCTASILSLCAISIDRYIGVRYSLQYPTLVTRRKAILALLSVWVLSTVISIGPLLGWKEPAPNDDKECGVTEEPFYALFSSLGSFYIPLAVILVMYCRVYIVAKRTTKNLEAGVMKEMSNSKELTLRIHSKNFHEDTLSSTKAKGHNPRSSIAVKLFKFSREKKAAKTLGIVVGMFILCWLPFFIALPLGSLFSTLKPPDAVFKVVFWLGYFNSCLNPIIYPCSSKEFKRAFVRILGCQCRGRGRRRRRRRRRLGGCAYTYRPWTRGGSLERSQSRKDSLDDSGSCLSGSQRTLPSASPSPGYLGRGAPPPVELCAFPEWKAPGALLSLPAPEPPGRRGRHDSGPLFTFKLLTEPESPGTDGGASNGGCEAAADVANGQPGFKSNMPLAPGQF

[22] = test system: Tyrosine-protein kinase ABL1 (Homo sapiens), P00519 [F317I]; conditions: Compound concentration 1000.0 nM
[23] = target: Casein kinase I isoform epsilon (Homo sapiens) (UniProt P49674); conditions: Compound concentration 1000.0 nM
[24] = target: Cannabinoid receptor 2 (Homo sapiens) (UniProt P34972); test: CB2 (h) Eurofins-Cerep binding assay; design: ligand concentration 0.8 nM; conditions: filed as agonist, Compound concentration 10.0 uM
[25] = target: Death-associated protein kinase 1 (Homo sapiens) (UniProt P53355); conditions: Compound concentration 1000.0 nM
[26] = target: Proto-oncogene tyrosine-protein kinase ROS (Homo sapiens) (UniProt P08922); conditions: Compound concentration 1000.0 nM
[27] = target: Wee1-like protein kinase 2 (Homo sapiens) (UniProt P0C1S8); conditions: Compound concentration 1000.0 nM
Chain of Wee1-like protein kinase 2 (Homo sapiens) (P0C1S8 whole entry, looked up): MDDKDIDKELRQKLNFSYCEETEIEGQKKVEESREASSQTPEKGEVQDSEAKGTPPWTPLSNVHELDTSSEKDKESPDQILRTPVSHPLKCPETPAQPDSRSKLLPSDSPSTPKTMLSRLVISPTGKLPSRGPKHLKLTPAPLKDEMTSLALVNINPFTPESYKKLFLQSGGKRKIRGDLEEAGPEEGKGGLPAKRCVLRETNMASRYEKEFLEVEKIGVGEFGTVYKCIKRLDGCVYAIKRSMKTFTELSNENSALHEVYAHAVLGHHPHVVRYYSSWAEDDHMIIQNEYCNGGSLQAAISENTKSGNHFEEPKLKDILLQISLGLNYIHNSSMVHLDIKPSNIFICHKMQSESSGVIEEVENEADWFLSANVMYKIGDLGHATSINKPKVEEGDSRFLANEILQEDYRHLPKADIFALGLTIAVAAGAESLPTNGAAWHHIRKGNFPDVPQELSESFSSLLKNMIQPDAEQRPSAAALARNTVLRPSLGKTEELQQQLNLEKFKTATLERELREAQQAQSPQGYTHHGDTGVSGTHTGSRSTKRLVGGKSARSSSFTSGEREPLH

[28] = target: Cyclin-G-associated kinase (Homo sapiens) (UniProt O14976); conditions: Compound concentration 1000.0 nM
[29] = target: Cyclin-dependent kinase 4 (Homo sapiens) (UniProt P11802); conditions: Compound concentration 1000.0 nM
Chain of Cyclin-dependent kinase 4 (Homo sapiens) (P11802 whole entry): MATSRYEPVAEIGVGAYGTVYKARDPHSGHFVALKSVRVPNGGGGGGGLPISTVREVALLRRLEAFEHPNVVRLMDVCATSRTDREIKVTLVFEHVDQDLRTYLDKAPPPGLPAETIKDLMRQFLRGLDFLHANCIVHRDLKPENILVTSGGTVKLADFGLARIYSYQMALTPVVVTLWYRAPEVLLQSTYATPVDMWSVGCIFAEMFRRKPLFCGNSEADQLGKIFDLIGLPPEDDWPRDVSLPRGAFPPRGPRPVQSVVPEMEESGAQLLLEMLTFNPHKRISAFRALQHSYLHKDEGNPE

[30] = target: 5-hydroxytryptamine receptor 2A (Homo sapiens) (UniProt P28223); conditions: Compound concentration 10.0 uM
[31] = target: GABA-A receptor; anion channel (Rattus norvegicus) (UniProt O09028+P15431+P18506+P18508+P19969+P20236+P23574+P23576+P28471+P28473+P30191+P62813+P63079+P63138+Q91ZM7+Q9ES14); test: Cl- channel (GABA-gated) Eurofins-Cerep binding assay; format: protein-complex assay; design: ligand concentration 3 nM; conditions: filed as antagonist, Compound concentration 10.0 uM
[32] = target: Citron Rho-interacting kinase (Homo sapiens) (UniProt O14578); conditions: Compound concentration 1000.0 nM
[33] = target: Cyclin-dependent kinase 13 (Homo sapiens) (UniProt Q14004); conditions: Compound concentration 1000.0 nM
[34] = target: Serine/threonine-protein kinase PAK 4 (Homo sapiens) (UniProt O96013); conditions: Compound concentration 1000.0 nM
[35] = target: Receptor tyrosine-protein kinase erbB-4 (Homo sapiens) (UniProt Q15303); conditions: Compound concentration 1000.0 nM
[36] = target: Discoidin domain-containing receptor 2 (Homo sapiens) (UniProt Q16832); conditions: Compound concentration 1000.0 nM
[37] = target: D(1A) dopamine receptor (Homo sapiens) (UniProt P21728); conditions: Compound concentration 10.0 uM

| Structure (SMILES) | % Inhibition of Control Values (Mean n=2) [1] [%] | residual activity [2] [%] | residual activity [3] [%] | % Inhibition of Control Specific Binding (Mean n=2) [4] [%] | residual activity [5] [%] | residual activity [6] [%] | residual activity [7] [%] | residual activity [8] [%] | % Inhibition of Control Specific Binding (Mean n=2) [9] [%] | % Inhibition of Control Specific Binding (Mean n=2) [10] [%] | residual activity [11] [%] | residual activity [12] [%] | residual activity [13] [%] | residual activity [14] [%] | residual activity [15] [%] | % Inhibition of Control Values (Mean n=2) [16] [%] | residual activity [17] [%] | residual activity [18] [%] | residual activity [19] [%] | residual activity [20] [%] | other results |
| --- | --- | --- | --- | --- | --- | --- | --- | --- | --- | --- | --- | --- | --- | --- | --- | --- | --- | --- | --- | --- | --- |
| O=C(NS(=O)(=O)c1ccc(NCC2CCOCC2)c([N+](=O)[O-])c1)c1ccc(N2CCN(Cc3ccc(C(F)(F)F)cc3-c3ccc(Cl)cc3)CC2)cc1Oc1cnc2[nH]ccc2c1 [A-1210227] | 3.7 | 98 | 59 | 24 | 100 | 89 | 97 | 93 | -0.1 | 2.8 | 100 | 96 | 100 | 100 | 100 | -32.2 | 97 | 100 | 95 | 73 | inhibition [21]: 12.3%; residual activity [22]: 87%; residual activity [23]: 95%; % Inhibition of Control Specific Binding (Mean n=2) [24]: -13%; residual activity [25]: 100%; residual activity [26]: 87%; residual activity [27]: 100%; residual activity [28]: 100%; residual activity [29]: 100%; inhibition [30]: 12.5%; % Inhibition of Control Specific Binding (Mean n=2) [31]: -1.3%; residual activity [32]: 91%; residual activity [33]: 63%; residual activity [34]: 93%; residual activity [35]: 100%; residual activity [36]: 90%; inhibition [37]: 34.2% |
| CO[C@H]1CC[C@H](CNc2ccc(S(=O)(=O)NC(=O)c3ccc(N4CCN(CC5=C(c6ccc(Cl)cc6)CC(C)(C)CC5)CC4)cc3Oc3cnc4[nH]ccc4c3)cc2[N+](=O)[O-])CC1 [A-1211212] | 6.9 | 94 | 67 | 17.3 | 95 | 100 | 65 | 91 | -5 | 12.9 | 96 | 100 | 100 | 100 | 95 | -72.6 | 90 | 100 | 99 | 67 | inhibition [21]: 1.2%; residual activity [22]: 100%; residual activity [23]: 88%; % Inhibition of Control Specific Binding (Mean n=2) [24]: 21.4%; residual activity [25]: 73%; residual activity [26]: 72%; residual activity [27]: 81%; residual activity [28]: 99%; residual activity [29]: 100%; inhibition [30]: 12.7%; % Inhibition of Control Specific Binding (Mean n=2) [31]: 1.3%; residual activity [32]: 74%; residual activity [33]: 100%; residual activity [34]: 78%; residual activity [35]: 80%; residual activity [36]: 100%; inhibition [37]: 28.2% |
